From PMC7407272, “Induction of Lysosome Membrane Permeabilization as a Therapeutic Strategy to Target Pancreatic Cancer Stem Cells” (Cancers, 2020)

What was measured:
IKK-alpha = molecular target: T1, IKK-alpha (Homo sapiens, UniProt O15111); test: KINOMEscan; type: binding; details: read-out: % Ctrl
T1 construct: purchased DiscoveRx KINOMEscan

LRRK2(G2019S) = molecular target: T2, LRRK2(G2019S) (Homo sapiens, UniProt Q5S007, G2019S); test: KINOMEscan; type: binding; details: read-out: % Ctrl
T2 construct: purchased DiscoveRx KINOMEscan
T2 sequence (Q5S007 whole entry G2019S): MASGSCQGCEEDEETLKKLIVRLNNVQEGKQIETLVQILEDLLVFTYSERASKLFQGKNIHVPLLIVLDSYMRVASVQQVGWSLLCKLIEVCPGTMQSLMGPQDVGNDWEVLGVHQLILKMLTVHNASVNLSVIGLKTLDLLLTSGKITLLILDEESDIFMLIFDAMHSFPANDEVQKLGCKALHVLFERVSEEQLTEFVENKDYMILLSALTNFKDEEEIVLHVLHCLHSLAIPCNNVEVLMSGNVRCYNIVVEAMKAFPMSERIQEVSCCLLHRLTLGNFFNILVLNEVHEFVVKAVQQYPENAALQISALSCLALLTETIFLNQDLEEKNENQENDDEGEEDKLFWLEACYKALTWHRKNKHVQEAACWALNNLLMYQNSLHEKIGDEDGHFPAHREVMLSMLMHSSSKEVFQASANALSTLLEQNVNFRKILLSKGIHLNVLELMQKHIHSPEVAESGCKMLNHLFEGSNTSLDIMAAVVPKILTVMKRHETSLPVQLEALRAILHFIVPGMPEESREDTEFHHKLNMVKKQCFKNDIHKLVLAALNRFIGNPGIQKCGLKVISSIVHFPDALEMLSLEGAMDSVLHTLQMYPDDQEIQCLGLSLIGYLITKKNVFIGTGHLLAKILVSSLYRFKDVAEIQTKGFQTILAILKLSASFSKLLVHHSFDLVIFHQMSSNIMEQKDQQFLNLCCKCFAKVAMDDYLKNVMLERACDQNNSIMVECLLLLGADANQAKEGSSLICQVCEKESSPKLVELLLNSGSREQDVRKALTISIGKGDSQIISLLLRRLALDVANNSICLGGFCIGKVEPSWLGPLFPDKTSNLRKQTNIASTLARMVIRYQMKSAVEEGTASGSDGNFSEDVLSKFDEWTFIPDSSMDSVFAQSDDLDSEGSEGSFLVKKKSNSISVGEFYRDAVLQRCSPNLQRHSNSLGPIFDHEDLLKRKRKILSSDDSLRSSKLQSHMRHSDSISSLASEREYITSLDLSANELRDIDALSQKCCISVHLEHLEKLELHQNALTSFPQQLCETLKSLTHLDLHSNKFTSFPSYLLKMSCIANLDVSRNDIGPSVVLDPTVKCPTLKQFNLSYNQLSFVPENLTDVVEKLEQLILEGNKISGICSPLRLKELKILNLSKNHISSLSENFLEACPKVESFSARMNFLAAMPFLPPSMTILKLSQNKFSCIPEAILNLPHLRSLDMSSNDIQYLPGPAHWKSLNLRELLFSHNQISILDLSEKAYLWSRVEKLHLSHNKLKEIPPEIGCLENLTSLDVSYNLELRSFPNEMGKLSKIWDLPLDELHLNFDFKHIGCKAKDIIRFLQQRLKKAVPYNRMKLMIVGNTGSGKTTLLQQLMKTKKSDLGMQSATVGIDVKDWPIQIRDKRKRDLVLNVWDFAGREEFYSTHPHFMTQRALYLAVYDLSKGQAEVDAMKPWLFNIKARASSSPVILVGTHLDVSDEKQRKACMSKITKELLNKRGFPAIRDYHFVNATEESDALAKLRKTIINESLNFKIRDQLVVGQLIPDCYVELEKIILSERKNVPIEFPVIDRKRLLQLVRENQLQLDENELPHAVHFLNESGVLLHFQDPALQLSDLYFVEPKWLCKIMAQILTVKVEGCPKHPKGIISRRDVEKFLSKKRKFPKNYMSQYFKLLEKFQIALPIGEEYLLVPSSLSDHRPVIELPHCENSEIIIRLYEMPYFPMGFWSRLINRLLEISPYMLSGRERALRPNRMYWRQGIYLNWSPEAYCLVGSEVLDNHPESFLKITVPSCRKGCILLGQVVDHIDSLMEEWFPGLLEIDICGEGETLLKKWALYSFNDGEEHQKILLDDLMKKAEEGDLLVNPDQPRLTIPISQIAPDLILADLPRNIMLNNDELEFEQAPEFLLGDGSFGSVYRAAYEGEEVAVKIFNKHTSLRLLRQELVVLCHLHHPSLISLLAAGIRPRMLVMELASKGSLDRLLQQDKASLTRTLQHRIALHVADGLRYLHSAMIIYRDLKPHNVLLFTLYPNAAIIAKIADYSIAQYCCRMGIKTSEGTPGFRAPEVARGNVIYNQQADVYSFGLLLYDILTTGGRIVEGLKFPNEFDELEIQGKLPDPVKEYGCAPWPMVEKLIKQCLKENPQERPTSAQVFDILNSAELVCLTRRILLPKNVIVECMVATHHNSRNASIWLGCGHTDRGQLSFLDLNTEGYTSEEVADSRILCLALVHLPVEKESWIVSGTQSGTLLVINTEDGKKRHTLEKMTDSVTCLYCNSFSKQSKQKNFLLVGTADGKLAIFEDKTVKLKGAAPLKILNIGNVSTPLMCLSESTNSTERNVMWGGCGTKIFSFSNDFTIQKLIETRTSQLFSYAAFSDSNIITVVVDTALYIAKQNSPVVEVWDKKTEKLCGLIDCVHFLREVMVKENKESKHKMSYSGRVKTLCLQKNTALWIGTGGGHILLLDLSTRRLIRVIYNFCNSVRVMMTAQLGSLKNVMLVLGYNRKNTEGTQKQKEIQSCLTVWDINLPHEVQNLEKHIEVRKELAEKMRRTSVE

TNNI3K = molecular target: T3, TNNI3K (Homo sapiens, UniProt Q59H18); test: KINOMEscan; type: binding; details: read-out: % Ctrl
T3 construct: purchased DiscoveRx KINOMEscan

PIK3CA(I800L) = molecular target: T4, PIK3CA(I800L) (Homo sapiens, UniProt P42336, I800L); test: KINOMEscan; type: binding; details: read-out: % Ctrl
T4 construct: purchased DiscoveRx KINOMEscan

CAMK4 = molecular target: T5, CAMK4 (Homo sapiens, UniProt Q16566); test: KINOMEscan; type: binding; details: read-out: % Ctrl
T5 construct: purchased DiscoveRx KINOMEscan

JAK1(JH1D.-cat.) = molecular target: T6, JAK1(JH1D.-cat.) (Homo sapiens, UniProt P23458); test: KINOMEscan; type: binding; details: read-out: % Ctrl
T6 construct: JAK1(JH1D.-cat.); purchased DiscoveRx KINOMEscan

CDK2 = molecular target: T7, CDK2 (Homo sapiens, UniProt P24941); test: KINOMEscan; type: binding; details: read-out: % Ctrl
T7 construct: purchased DiscoveRx KINOMEscan

CSNK1A1L = molecular target: T8, CSNK1A1L (Homo sapiens, UniProt Q8N752); test: KINOMEscan; type: binding; details: read-out: % Ctrl
T8 construct: purchased DiscoveRx KINOMEscan
T8 sequence (Q8N752 whole entry): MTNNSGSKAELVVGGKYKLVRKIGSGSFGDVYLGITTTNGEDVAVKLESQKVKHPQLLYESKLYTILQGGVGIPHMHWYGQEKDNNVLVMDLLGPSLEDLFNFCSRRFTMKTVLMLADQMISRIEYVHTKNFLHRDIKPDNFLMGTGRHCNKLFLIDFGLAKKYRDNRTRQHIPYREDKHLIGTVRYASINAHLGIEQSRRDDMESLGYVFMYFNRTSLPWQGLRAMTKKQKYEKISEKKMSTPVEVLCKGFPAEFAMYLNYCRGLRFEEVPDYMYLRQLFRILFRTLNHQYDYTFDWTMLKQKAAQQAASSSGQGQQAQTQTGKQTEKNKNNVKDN

MKK7 = molecular target: T9, MKK7 (Homo sapiens, UniProt O14733); test: KINOMEscan; type: binding; details: read-out: % Ctrl
T9 construct: purchased DiscoveRx KINOMEscan

AURKC = molecular target: T10, AURKC (Homo sapiens, UniProt Q9UQB9); test: KINOMEscan; type: binding; details: read-out: % Ctrl
T10 construct: purchased DiscoveRx KINOMEscan

WNK3 = molecular target: T11, WNK3 (Homo sapiens, UniProt Q9BYP7); test: KINOMEscan; type: binding; details: read-out: % Ctrl
T11 construct: purchased DiscoveRx KINOMEscan

PAK2 = molecular target: T12, PAK2 (Homo sapiens, UniProt Q13177); test: KINOMEscan; type: binding; details: read-out: % Ctrl
T12 construct: purchased DiscoveRx KINOMEscan
T12 sequence (Q13177 whole entry): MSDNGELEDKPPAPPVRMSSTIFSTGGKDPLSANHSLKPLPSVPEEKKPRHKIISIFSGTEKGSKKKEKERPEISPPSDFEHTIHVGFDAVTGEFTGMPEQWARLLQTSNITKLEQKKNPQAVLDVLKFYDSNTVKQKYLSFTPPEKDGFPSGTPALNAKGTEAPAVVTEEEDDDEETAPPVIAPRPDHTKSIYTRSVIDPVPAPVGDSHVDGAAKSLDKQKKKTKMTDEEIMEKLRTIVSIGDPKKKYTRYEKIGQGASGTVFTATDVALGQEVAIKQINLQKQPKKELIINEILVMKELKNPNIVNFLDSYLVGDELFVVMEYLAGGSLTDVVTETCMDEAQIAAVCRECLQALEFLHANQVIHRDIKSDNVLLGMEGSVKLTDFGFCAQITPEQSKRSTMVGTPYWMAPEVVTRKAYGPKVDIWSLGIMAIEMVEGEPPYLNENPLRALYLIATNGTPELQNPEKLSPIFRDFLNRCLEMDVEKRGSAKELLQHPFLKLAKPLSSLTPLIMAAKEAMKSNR

WNK2 = molecular target: T13, WNK2 (Homo sapiens, UniProt Q9Y3S1); test: KINOMEscan; type: binding; details: read-out: % Ctrl
T13 construct: purchased DiscoveRx KINOMEscan

ACVR1 = molecular target: T14, ACVR1 (Homo sapiens, UniProt Q04771); test: KINOMEscan; type: binding; details: read-out: % Ctrl
T14 construct: purchased DiscoveRx KINOMEscan

TYK2(JH2D.-pseudoK.) = molecular target: T15, TYK2(JH2D.-pseudoK.) (Homo sapiens, UniProt P29597); test: KINOMEscan; type: binding; details: read-out: % Ctrl
T15 construct: TYK2(JH2D.-pseudoK.); purchased DiscoveRx KINOMEscan

ABL1(F317L)-nonP = molecular target: T16, ABL1(F317L)-nonP (Homo sapiens, UniProt P00519, F317L); test: KINOMEscan; type: binding; details: read-out: % Ctrl
T16 construct: purchased DiscoveRx KINOMEscan

FYN = molecular target: T17, FYN (Homo sapiens, UniProt P06241); test: KINOMEscan; type: binding; details: read-out: % Ctrl
T17 construct: purchased DiscoveRx KINOMEscan

PDAC2 cells = test: CD133 flow cytometry; type: cell-based, human; details: 1.25 or 2.5 µM, 72 h
Experimental: Cells were analyzed with a 4-laser Attune NxT Acoustic Cytometer (ThermoFisher Scientific). […] For lysosomes quantification, Acridine Orange (AO) (A1301, Thermo Fisher Scientific, Waltham, MA, USA) or Lysotracker Deep Red (DR) (L12492, Molecular probes, Life Technologies, Waltham, MA, USA) were used. AO fluorescence was assessed with two combinations of excitation and emission spectra: BL1 (Ex488/Em695/40, equal to the far-red channel (>670 nm)) and BL3 (Ex488/Em695/40, equal to the far-red channel (>670 nm)) Lysotracker DR fluorescence was assessed with RL1 (Ex638/Em670/14). […] For all assays, DAPI was used to mark and exclude dead cells, and data were analyzed using the software FlowJo v9.3 (Tree Star Inc., Ashland, OR, USA).
Figure S3. […] Apoptosis was determined 72 h post treatment initiation. […]

LIMK1 = molecular target: T18, LIMK1 (Homo sapiens, UniProt P53667); test: KINOMEscan; type: binding; details: read-out: % Ctrl
T18 construct: purchased DiscoveRx KINOMEscan

PIK3C2B = molecular target: T19, PIK3C2B (Homo sapiens, UniProt O00750); test: KINOMEscan; type: binding; details: read-out: % Ctrl
T19 construct: purchased DiscoveRx KINOMEscan

STK36 = molecular target: T20, STK36 (Homo sapiens, UniProt Q9NRP7); test: KINOMEscan; type: binding; details: read-out: % Ctrl
T20 construct: purchased DiscoveRx KINOMEscan

MEK6 = molecular target: T21, MEK6 (Homo sapiens, UniProt P52564); test: KINOMEscan; type: binding; details: read-out: % Ctrl
T21 construct: purchased DiscoveRx KINOMEscan
T21 sequence (P52564 whole entry): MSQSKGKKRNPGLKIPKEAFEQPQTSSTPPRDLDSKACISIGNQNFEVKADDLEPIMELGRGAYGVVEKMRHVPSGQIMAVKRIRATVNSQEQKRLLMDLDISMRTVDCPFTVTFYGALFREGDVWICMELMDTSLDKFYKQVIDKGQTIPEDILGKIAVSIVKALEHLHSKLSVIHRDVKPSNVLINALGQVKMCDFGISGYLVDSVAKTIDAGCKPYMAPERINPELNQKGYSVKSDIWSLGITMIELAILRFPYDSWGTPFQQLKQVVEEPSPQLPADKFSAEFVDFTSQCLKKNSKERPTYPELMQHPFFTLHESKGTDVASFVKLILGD

DRAK1 = molecular target: T22, DRAK1 (Homo sapiens, UniProt Q9UEE5); test: KINOMEscan; type: binding; details: read-out: % Ctrl
T22 construct: purchased DiscoveRx KINOMEscan
T22 sequence (Q9UEE5 whole entry): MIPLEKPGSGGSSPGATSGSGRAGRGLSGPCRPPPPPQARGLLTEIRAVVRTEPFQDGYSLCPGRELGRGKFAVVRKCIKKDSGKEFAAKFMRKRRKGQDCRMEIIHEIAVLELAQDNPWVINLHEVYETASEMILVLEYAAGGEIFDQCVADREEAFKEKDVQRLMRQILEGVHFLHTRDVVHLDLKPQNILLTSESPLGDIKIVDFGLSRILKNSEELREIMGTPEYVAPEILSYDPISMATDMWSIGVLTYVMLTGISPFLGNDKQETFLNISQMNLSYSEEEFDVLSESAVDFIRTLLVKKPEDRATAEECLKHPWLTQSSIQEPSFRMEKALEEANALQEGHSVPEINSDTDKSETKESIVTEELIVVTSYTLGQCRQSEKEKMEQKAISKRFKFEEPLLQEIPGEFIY

TLK1 = molecular target: T23, TLK1 (Homo sapiens, UniProt Q9UKI8); test: KINOMEscan; type: binding; details: read-out: % Ctrl
T23 construct: purchased DiscoveRx KINOMEscan

CDK9 = molecular target: T24, CDK9 (Homo sapiens, UniProt P50750); test: KINOMEscan; type: binding; details: read-out: % Ctrl
T24 construct: purchased DiscoveRx KINOMEscan

MKNK2 = molecular target: T25, MKNK2 (Homo sapiens, UniProt Q9HBH9); test: KINOMEscan; type: binding; details: read-out: % Ctrl
T25 construct: purchased DiscoveRx KINOMEscan

MRCKB = molecular target: T26, MRCKB (Homo sapiens, UniProt Q9Y5S2); test: KINOMEscan; type: binding; details: read-out: % Ctrl
T26 construct: purchased DiscoveRx KINOMEscan

T1 sequence (O15111 whole entry): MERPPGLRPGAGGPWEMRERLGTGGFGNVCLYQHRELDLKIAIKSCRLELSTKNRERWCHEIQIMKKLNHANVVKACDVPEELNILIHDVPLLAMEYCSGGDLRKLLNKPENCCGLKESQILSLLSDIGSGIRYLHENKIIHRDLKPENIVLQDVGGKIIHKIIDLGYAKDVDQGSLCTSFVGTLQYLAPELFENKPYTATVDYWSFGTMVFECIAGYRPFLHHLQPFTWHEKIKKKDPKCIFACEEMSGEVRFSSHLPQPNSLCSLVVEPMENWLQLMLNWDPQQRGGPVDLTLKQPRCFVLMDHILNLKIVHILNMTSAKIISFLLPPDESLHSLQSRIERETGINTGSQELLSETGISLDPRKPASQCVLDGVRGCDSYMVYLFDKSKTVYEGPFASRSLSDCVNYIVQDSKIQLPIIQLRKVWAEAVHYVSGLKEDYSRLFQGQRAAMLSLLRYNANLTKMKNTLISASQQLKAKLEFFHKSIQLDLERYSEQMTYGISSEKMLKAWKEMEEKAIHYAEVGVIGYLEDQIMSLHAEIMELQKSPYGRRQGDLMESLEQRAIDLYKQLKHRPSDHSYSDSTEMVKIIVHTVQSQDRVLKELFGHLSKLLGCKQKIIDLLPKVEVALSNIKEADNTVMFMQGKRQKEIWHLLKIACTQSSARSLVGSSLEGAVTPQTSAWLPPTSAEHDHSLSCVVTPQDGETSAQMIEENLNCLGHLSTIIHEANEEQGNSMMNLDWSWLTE

Work on `CN1CCC(CNc2ccc3ncc(C(=O)Nc4cccc(OC(F)(F)F)c4)n3n2)CC1` [Cpd 2] yielded a remaining binding at 1 µM (IKK-alpha) of 97%, a remaining binding at 1 µM (LRRK2(G2019S)) of 93% and a remaining binding at 1 µM (TNNI3K) of 100%. For the same molecule, the remaining binding at 1 µM (PIK3CA(I800L)) was 81%, the remaining binding at 1 µM (CAMK4) was 100% and the remaining binding at 1 µM (JAK1(JH1D.-cat.)) was 100%. For the same molecule, the remaining binding at 1 µM (CDK2) was 100%, the remaining binding at 1 µM (CSNK1A1L) was 95% and the remaining binding at 1 µM (MKK7) was 100%. For the same molecule, the remaining binding at 1 µM (AURKC) was 95%, the remaining binding at 1 µM (WNK3) was 99% and the remaining binding at 1 µM (PAK2) was 94%. The remaining binding at 1 µM (WNK2) was 77%, the remaining binding at 1 µM (ACVR1) was 99% and the remaining binding at 1 µM (TYK2(JH2D.-pseudoK.)) was 12%. For the same molecule, the remaining binding at 1 µM (ABL1(F317L)-nonP) was 66%, the remaining binding at 1 µM (FYN) was 96% and the “percentage of CD133+ cells” value (PDAC2 cells) was “reduced”. It also gave a remaining binding at 1 µM (LIMK1) of 79%, a remaining binding at 1 µM (PIK3C2B) of 48% and a remaining binding at 1 µM (STK36) of 100%. The remaining binding at 1 µM (MEK6) was 98%, the remaining binding at 1 µM (DRAK1) was 97% and the remaining binding at 1 µM (TLK1) was 98%. For the same molecule, the remaining binding at 1 µM (CDK9) was 98%, the remaining binding at 1 µM (MKNK2) was 96% and the remaining binding at 1 µM (MRCKB) was 100%.
